Reference: patent US20090281083A1, “Combination Product” (ASTRAZENECA AB, priority 2005, published 2009)

What was measured:
5/6 nephrectomy rats [1] = experiment: Survival of 5/6 nephrectomised rats at 4 months; format: in vivo, male Wistar rats; conditions: 4 months into the study (3 months of drug treatment); candesartan cilexetil 5 mg/kg/day p.o., BH4 10 mg/kg/day i.p.
Description: Sixty male Wistar rats, mean weight 324±4 g, were fed a normal chow diet and allowed distilled water ad libitum. The 5/6 nephrectomy was performed according to standard protocol. In brief, the animals were anaesthetized with pentobarbital [35 mg/kg body weight (BW) intraperitoneally] and then underwent a right nephrectomy and ligature of two of the major branches of the left main renal artery (Nx) at day 0. AII the nephrectomies were carried out by one operator. The animals were then randomly assigned to one of five groups, as follows. • Group 1. SHAM (n=12); sham-operated rats. • Group 2. Nx (n=15); untreated 5/6 nephrectomy rats. • Group 3. C (n=11); 5/6 nephrectomy rats to which candesartan cilexetil (AstraZeneca AB) was given daily at a dose of 5 mg/kg BW/day. • Group 4. BH4 (n=10); 5/6 nephrectomy rats administered BH4 (Alexis Biochemical, Lausen), 10 mg/kg BW/day intraperitoneally (see Hypertension 38, 1044-1048 (2001), the disclosures of which document are hereby incorporated by reference). • Group 5. C+B (n=12); 5/6 nephrectomy rats to which candesartan cilexetil (AstraZeneca AB) was given daily at a dose of 5 mg/kg BW/day and BH4 (Alexis Biochemical, Lausen), was administered at a dose of 10 mg/kg BW/day intraperitoneally.
(§1) Drug administration was begun 30 days after surgery (at a point when the nephrectomised rats have already developed hypertension and renal insufficiency). […] Systolic blood pressure (SBP) was measured in trained unstressed rats 1 day before surgery and at 30, 60, 90 and 120 days, by tail cuff manometry using an automated sphygmomanometer (Narco Bio Systems, Austin, Tex., USA). The Animal Care and Use Committee of Meir Hospital approved all procedures.
Due to abnormalities found by way of post-study autopsies, two rats were excluded from the analysis of the “C+B” group (i.e. Group 5).
At a point 4 months into the study (3 months of drug treatment for rats in groups 3 to 5), survival rates were as follows.

5/6 nephrectomy rats [2] = experiment: Histological mesangial expansion score of kidneys of 5/6 nephrectomised rats; format: in vivo, male Wistar rats; conditions: 4 months into the study (3 months of drug treatment); candesartan cilexetil 5 mg/kg/day p.o., BH4 10 mg/kg/day i.p.; untreated Nx 200, sham 0
Description: Sixty male Wistar rats, mean weight 324±4 g, were fed a normal chow diet and allowed distilled water ad libitum. The 5/6 nephrectomy was performed according to standard protocol. In brief, the animals were anaesthetized with pentobarbital [35 mg/kg body weight (BW) intraperitoneally] and then underwent a right nephrectomy and ligature of two of the major branches of the left main renal artery (Nx) at day 0. AII the nephrectomies were carried out by one operator. The animals were then randomly assigned to one of five groups, as follows. • Group 1. SHAM (n=12); sham-operated rats. • Group 2. Nx (n=15); untreated 5/6 nephrectomy rats. • Group 3. […]
as §1, with “The Animal Care and Use Committee of Meir Hospital approved all procedures.” left out
Kidneys were fixed in neutral buffered formalin and embedded in paraffin for light microscopic study. […] A semi-quantitative score was used to assess the severity of glomerular lesions (see Nephrol. Dial. Transplant. 8, 501-506 (1993), the disclosures of which document are hereby incorporated by reference). […]

## C[C@H](O)[C@H](O)[C@H]1CNc2nc(N)[nH]c(=O)c2N1 [BH4, Tetrahydrobiopterin]
5/6 nephrectomy rats [1]
  Survival (% age): (50%)
5/6 nephrectomy rats [2]
  ME Score (mesangial expansion score, median value): 158

## CCOc1nc2cccc(C(=O)OC(C)OC(=O)OC3CCCCC3)c2n1Cc1ccc(-c2ccccc2-c2nnn[nH]2)cc1 (centres unmarked) [candesartan cilexetil, 1-(cyclohexyloxycarbonyloxy)ethyl ester of candesartan]
5/6 nephrectomy rats [1]
  Survival (% age): (63.64%)
  Survival (surviving rats of group): 7 of 11
5/6 nephrectomy rats [2]
  ME Score (mesangial expansion score, median value): 82
